Here are results for 27 compounds from patent publication US9006450B2 (Boehringer Ingelheim International GmbH, priority 2010, dated 2015).

In the test the target is T1, human ACC2 (Homo sapiens, UniProt O00763).
T1 construct: made in house; host or cells: insect cells (baculoviral expression system)
T1 sequence (O00763 129-2458 limits assumed): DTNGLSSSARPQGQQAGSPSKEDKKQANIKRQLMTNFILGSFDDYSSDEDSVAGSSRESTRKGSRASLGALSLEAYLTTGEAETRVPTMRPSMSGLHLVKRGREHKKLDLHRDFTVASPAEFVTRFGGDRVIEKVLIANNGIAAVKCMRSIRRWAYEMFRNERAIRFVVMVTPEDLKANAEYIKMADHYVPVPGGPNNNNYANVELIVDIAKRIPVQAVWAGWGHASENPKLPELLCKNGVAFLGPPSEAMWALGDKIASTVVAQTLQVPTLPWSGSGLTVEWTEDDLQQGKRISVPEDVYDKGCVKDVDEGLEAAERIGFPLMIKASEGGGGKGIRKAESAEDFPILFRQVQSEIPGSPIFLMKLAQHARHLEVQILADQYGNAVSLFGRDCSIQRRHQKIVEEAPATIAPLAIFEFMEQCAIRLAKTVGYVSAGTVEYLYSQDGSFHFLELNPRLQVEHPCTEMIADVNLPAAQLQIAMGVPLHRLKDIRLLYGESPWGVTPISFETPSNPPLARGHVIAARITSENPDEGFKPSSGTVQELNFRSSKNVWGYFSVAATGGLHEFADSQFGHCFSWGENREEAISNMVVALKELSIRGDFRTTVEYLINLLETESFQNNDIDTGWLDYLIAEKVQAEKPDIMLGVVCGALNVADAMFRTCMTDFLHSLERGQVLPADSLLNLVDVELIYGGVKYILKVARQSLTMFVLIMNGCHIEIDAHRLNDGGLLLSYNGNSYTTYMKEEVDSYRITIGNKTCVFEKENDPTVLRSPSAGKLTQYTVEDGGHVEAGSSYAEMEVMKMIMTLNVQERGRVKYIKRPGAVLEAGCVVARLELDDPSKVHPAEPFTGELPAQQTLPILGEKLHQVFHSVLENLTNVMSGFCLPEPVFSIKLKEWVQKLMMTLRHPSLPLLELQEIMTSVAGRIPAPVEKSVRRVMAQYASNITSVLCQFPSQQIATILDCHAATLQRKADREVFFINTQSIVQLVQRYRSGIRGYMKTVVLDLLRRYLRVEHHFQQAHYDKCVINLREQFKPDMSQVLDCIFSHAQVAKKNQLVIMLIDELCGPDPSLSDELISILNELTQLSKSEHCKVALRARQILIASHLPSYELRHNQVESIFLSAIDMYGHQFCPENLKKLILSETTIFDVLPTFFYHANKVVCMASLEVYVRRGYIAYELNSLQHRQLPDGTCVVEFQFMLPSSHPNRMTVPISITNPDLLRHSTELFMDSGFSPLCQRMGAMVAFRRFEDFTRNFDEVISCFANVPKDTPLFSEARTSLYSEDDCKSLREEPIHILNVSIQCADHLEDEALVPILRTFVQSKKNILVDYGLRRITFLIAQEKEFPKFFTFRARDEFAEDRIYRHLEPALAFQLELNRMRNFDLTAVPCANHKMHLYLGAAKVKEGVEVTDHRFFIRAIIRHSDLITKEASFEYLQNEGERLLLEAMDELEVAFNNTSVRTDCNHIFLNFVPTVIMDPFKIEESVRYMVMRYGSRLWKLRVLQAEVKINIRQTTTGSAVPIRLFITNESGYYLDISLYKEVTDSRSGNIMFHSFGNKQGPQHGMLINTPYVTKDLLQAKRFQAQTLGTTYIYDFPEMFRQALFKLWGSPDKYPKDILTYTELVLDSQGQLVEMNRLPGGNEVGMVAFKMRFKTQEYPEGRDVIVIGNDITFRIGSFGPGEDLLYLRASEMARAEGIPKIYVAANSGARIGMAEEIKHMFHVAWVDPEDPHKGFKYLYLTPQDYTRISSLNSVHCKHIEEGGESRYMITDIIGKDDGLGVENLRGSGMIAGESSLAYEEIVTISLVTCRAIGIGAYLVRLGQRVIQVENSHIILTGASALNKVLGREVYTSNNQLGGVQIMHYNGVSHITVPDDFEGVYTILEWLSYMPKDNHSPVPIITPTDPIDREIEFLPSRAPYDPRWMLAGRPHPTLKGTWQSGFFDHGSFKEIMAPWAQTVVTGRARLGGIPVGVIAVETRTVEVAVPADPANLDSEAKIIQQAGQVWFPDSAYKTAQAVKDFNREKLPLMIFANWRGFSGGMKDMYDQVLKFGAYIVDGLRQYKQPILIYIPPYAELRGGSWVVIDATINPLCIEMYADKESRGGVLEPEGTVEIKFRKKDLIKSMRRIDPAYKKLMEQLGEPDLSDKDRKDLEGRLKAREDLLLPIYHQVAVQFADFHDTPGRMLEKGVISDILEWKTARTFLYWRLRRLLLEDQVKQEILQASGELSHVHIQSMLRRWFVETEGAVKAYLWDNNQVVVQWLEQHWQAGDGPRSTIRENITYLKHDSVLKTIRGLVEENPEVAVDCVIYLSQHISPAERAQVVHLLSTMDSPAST
The test can be described thus: ACC2 assay, spectrophotometric 384 well assay (NADH-linked, coupled lactate dehydrogenase/pyruvate kinase). The test is classed as biochemical. The following applies: ACC2 assay, hACC2 construct lacking 128 N-terminal amino acids, 25° C., 340 nm; read-out: IC50. Put shortly: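 Human ACC2 lacking N-terminal 128 aa, baculovirus/insect-cell expressed, anion-exchange purified; 100 mM Tris pH 7.5, 10 mM citrate, 25 mM KHCO3, 1% DMSO. Started with 200 μM NADH and acetyl-CoA plus 500 μM ATP; PK/LDH-coupled A340 decrease read 15 min at 25° C. IC50 by nonlinear fit of low-control-subtracted slopes.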
In the case of `CCOc1ccc(N2CCC(c3ccc([C@H](C)NC(=O)C4(C)COC4)cc3)CC2)cc1` [Example 6.27], the IC50 came to 4800 nM.
Take `CCOc1ccc(N2CCC(c3ccc([C@H](C)NC(=O)Cn4ccnc4)cc3)CC2)cc1` [Example 6.28]: the IC50 worked out at 1300 nM.
For the compound `CCOc1ccc(N2CCC(c3ccc([C@H](C)NC(=O)c4cc[nH]n4)cc3)CC2)cc1` [Example 6.29], the IC50 stood at 3600 nM.
`CCOc1ccc(N2CCC(c3ccc([C@H](C)NC(=O)CCOC)cc3)CC2)cc1` [Example 6.30]: the IC50 turned out to be 1100 nM.
Consider `CCOc1ccc(N2CCC(c3ccc([C@H](C)NC(=O)c4cccnc4)cc3)CC2)cc1` [Example 6.31], for which the IC50 was found to be 2800 nM.
For `CCOc1ccc(N2CCC(c3ccc([C@H](C)NC(=O)Cc4cccnc4)cc3)CC2)cc1` [Example 6.32], the IC50 was determined as 860 nM.
As to `CCOc1ccc(N2CCC(c3ccc([C@H](C)NC(=O)c4nccs4)cc3)CC2)cc1` [Example 6.33], the concentration for half-maximal inhibition (IC50) worked out at 3100 nM.
The value for `CCOc1ccc(N2CCC(c3ccc([C@H](C)NC(=O)C4(C(F)(F)F)CC4)cc3)CC2)cc1` [Example 6.34] was 250 nM; that for `CCOc1ccc(N2CCC(c3ccc([C@H](C)NC(=O)c4ncc[nH]4)cc3)CC2)cc1` [Example 6.35] was 7100 nM.
As for `CCOc1ccc(N2CCC(c3ccc([C@H](C)NC(=O)c4cnon4)cc3)CC2)cc1` [Example 6.36], the IC50 was 9100 nM.
As for `CCOc1ccc(N2CCC(c3ccc([C@H](C)NC(=O)C4CC(OC)C4)cc3)CC2)cc1` (stereo partly drawn) [Example 6.37], the half-maximal inhibitory concentration (IC50) worked out at 760 nM.
The figure for `CCOc1ccc(N2CCC(c3ccc([C@H](C)NC(=O)C4CC(F)C4)cc3)CC2)cc1` (stereo partly drawn) [Example 6.38] is 90 nM.
The figure for `CCOc1ccc(N2CCC(c3ccc([C@H](C)NC(=O)CCC#N)cc3)CC2)cc1` [Example 6.39] is 1300 nM; for `CCOc1ccc(N2CCC(c3ccc([C@H](C)NC(=O)c4ccncc4)cc3)CC2)cc1` [Example 6.40] it is 1200 nM.
For the compound `CCOc1ccc(N2CCC(c3ccc([C@H](C)NC(=O)c4ncn[nH]4)cc3)CC2)cc1` [Example 6.41], the IC50 worked out at 4100 nM.
With `CCOc1ccc(N2CCC(c3ccc([C@H](C)NC(=O)c4cncnc4)cc3)CC2)cc1` [Example 6.42], the half-inhibitory concentration (IC50) turned out to be 2800 nM.
For `CCOc1ccc(N2CCC(c3ccc([C@H](C)NC(=O)/C=N/OC)cc3)CC2)cc1` [Example 6.43], the IC50 was 1100 nM.
On to `CCOc1ccc(N2CCC(c3ccc([C@H](C)NC(=O)C(C)(C)OC)cc3)CC2)cc1` [Example 6.44], for which the half-inhibitory concentration (IC50) turned out to be 25000 nM.
As for `CCOc1ccc(N2CCC(c3ccc([C@H](C)NC(=O)C4(C)CCC4)cc3)CC2)cc1` [Example 6.45], the IC50 came to 2600 nM.
On to `CCOc1ccc(N2CCC(c3ccc([C@H](C)NC(=O)c4cscn4)cc3)CC2)cc1` [Example 6.46], for which the concentration for half-maximal inhibition (IC50) was 10400 nM.
The figure for `CCOc1ccc(N2CCC(c3ccc([C@H](C)NC(=O)c4cocn4)cc3)CC2)cc1` [Example 6.47] is 730 nM; for `CCOc1ccc(N2CCC(c3ccc([C@H](C)NC(=O)CO)cc3)CC2)cc1` [Example 6.48] it is 3700 nM.
The figure for `CCOc1ccc(N2CCC(c3ccc([C@H](C)NC(=O)CNC(=O)OC(C)(C)C)cc3)CC2)cc1` [Example 6.49] is 8300 nM.
In the case of `CC(=O)N[C@@H](C)c1ccc(C2CCN(c3ccc(OC4CCOCC4)cc3)CC2)cc1` [Example 7.1, (S)—N-[1-(4-{1-[4-(Tetrahydro-2H-pyran-4-yloxy)-phenyl]-piperidin-4-yl}-phenyl)-ethyl]-acetamide], the IC50 stood at 580 nM.
Regarding `CC(=O)N[C@@H](C)c1ccc(C2CCN(c3cccc(OC4CCOCC4)c3)CC2)cc1` [Example 7.2], the half-maximal inhibitory concentration (IC50) turned out to be 190 nM.
The figure for `CCOCCOc1ccc(N2CCC(c3ccc([C@H](C)NC(C)=O)cc3)CC2)cc1` [Example 8.1] is 440 nM; for `CCOCCOc1cccc(N2CCC(c3ccc([C@H](C)NC(C)=O)cc3)CC2)c1` [Example 8.2] it is 300 nM.
